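Briefly, cells in 96-well plates were exposed to five compound concentrations for 48 h, and endpoints were estimated by linear interpolation. At the GI50, growth is halved. At the TGI there is no net growth.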
Tests used:
Assay in all cases: growth of human tumour cells (NCI), 48 h
[1] = tested on: A498 renal
[2] = tested on: ACHN renal
[3] = tested on: CAKI-1 renal
[4] = tested on: CCRF-CEM leukemia
[5] = tested on: COLO 205 colon
[6] = tested on: HL-60(TB) leukemia
[7] = tested on: HOP-92 NSCLC
[8] = tested on: HS 578T breast
[9] = tested on: KM12 colon
[10] = tested on: MALME-3M melanoma
[11] = tested on: MDA-MB-231 breast
[12] = tested on: MDA-MB-435
[13] = tested on: MOLT-4 leukemia
[14] = tested on: NCI-H226 lung
[15] = tested on: NCI-H460 lung
[16] = tested on: NCI-H522 lung
[17] = tested on: NCI/ADR-RES ovarian
[18] = tested on: PC-3 prostate
[19] = tested on: RPMI-8226 leukemia
[20] = tested on: SF-539 CNS
[21] = tested on: SK-MEL-28 melanoma
[22] = tested on: SK-MEL-5 melanoma
[23] = tested on: SK-OV-3 ovarian
[24] = tested on: SN12C renal
[25] = tested on: SNB-19 CNS
[26] = tested on: SNB-75 CNS
[27] = tested on: SR leukemia
[28] = tested on: SW-620 colon
[29] = tested on: T-47D breast
[30] = tested on: TK-10 renal
[31] = tested on: UACC-62 melanoma
[32] = tested on: 786-0 renal
[33] = tested on: A549 NSCLC
[34] = tested on: BT-549 breast
[35] = tested on: DU-145 prostate
[36] = tested on: EKVX NSCLC
[37] = tested on: HCC-2998 colon
[38] = tested on: HCT-15 colon
[39] = tested on: HOP-62 NSCLC
[40] = tested on: HT29 colon
[41] = tested on: K-562 leukemia
[42] = tested on: LOX IMVI melanoma
[43] = tested on: M14 melanoma
[44] = tested on: MCF7 breast
[45] = tested on: NCI-H23 lung
[46] = tested on: OVCAR-3 ovarian
[47] = tested on: OVCAR-4 ovarian
[48] = tested on: OVCAR-5 ovarian
[49] = tested on: OVCAR-8 ovarian
[50] = tested on: RXF 393 renal
[51] = tested on: SF-268 CNS
[52] = tested on: SK-MEL-2 melanoma
[53] = tested on: U251 CNS
[54] = tested on: UACC-257 melanoma
[55] = tested on: UO-31 renal

## CCCc1cn2c(/C=N/N=C(N)N)c(-c3cccc([N+](=O)[O-])c3)nc2s1
[1]
  TGI: 33.2 µM
[2]
  TGI: 3.38 µM
[3]
  TGI: 3.83 µM
[4]
  TGI: 2.32 µM
[5]
  TGI: 4.35 µM
[6]
  TGI: 4.75 µM
[7]
  TGI: 32.4 µM
[8]
  TGI: 7.51 µM
[9]
  TGI: 3.57 µM
[10]
  TGI: 2.82 µM
[11]
  TGI: 3.04 µM
[12]
  TGI: 3.46 µM
[13]
  TGI: 2.81 µM
[14]
  TGI: 3.28 µM
[15]
  TGI: 5.37 µM
[16]
  TGI: 4.47 µM
[17]
  TGI: 10.5 µM
[18]
  TGI: 8.19 µM
[19]
  TGI: 4.36 µM
[20]
  TGI: 3.15 µM
[21]
  TGI: 3.18 µM
[22]
  TGI: 3.9 µM
[23]
  TGI: 5.3 µM
[24]
  TGI: 2.58 µM
[25]
  TGI: 4.86 µM
[26]
  TGI: 3.1 µM
[27]
  TGI: 3.89 µM
[28]
  TGI: 8.42 µM
[29]
  TGI: 4.99 µM
[30]
  TGI: 0.405 µM
[31]
  TGI: 3.15 µM

## COc1ccc2c(c1)c(-c1nc(-c3c[nH]c4ncccc34)cs1)cn2CCCN1CCCCC1
[32]
  GI50: 1.61 µM
  TGI: 3.06 µM
[1]
  GI50: 1.82 µM
  TGI: 3.42 µM
[33]
  GI50: 1.86 µM
  TGI: 3.53 µM
[2]
  GI50: 1.62 µM
  TGI: 3.01 µM
[34]
  GI50: 3.28 µM
  TGI: 12.7 µM
[5]
  GI50: 1.8 µM
  TGI: 3.52 µM
[35]
  GI50: 1.65 µM
  TGI: 3.13 µM
[36]
  GI50: 1.44 µM
  TGI: 2.9 µM
[37]
  GI50: 1.78 µM
  TGI: 3.42 µM
[38]
  GI50: 1.57 µM
  TGI: 2.97 µM
[6]
  GI50: 1.86 µM
  TGI: 3.79 µM
[39]
  GI50: 1.61 µM
  TGI: 3.2 µM
[7]
  GI50: 1.5 µM
  TGI: 3.1 µM
[8]
  GI50: 2.05 µM
  TGI: 5.61 µM
[40]
  GI50: 1.81 µM
  TGI: 3.53 µM
[41]
  GI50: 1.88 µM
  TGI: 4.16 µM
[9]
  GI50: 1.87 µM
  TGI: 3.86 µM
[42]
  GI50: 1.67 µM
  TGI: 3.18 µM
[43]
  GI50: 1.79 µM
  TGI: 3.51 µM
[44]
  GI50: 1.43 µM
  TGI: 2.9 µM
[11]
  GI50: 1.66 µM
  TGI: 3.27 µM
[12]
  GI50: 1.7 µM
  TGI: 3.21 µM
[45]
  GI50: 1.77 µM
  TGI: 3.52 µM
[15]
  GI50: 1.94 µM
  TGI: 3.88 µM
[17]
  GI50: 1.72 µM
  TGI: 3.44 µM
[46]
  GI50: 1.63 µM
  TGI: 3.1 µM
[47]
  GI50: 1.83 µM
  TGI: 4.35 µM
[48]
  GI50: 1.73 µM
  TGI: 3.8 µM
[49]
  GI50: 2 µM
  TGI: 3.76 µM
[18]
  GI50: 1.7 µM
  TGI: 3.29 µM
[19]
  GI50: 2.19 µM
  TGI: 4.8 µM
[50]
  GI50: 1.59 µM
  TGI: 3.2 µM
[51]
  GI50: 1.52 µM
  TGI: 3.17 µM
[20]
  GI50: 1.63 µM
  TGI: 3.07 µM
[52]
  GI50: 1.85 µM
  TGI: 3.72 µM
[21]
  GI50: 1.72 µM
  TGI: 3.26 µM
[23]
  GI50: 1.73 µM
  TGI: 3.27 µM
[24]
  GI50: 1.75 µM
  TGI: 3.36 µM
[26]
  GI50: 1.19 µM
  TGI: 3.09 µM
[28]
  GI50: 2 µM
  TGI: 3.95 µM
[30]
  GI50: 1.59 µM
  TGI: 3.03 µM
[53]
  GI50: 1.78 µM
  TGI: 3.21 µM
[54]
  GI50: 1.96 µM
  TGI: 3.69 µM
[31]
  GI50: 1.87 µM
  TGI: 3.53 µM
[55]
  GI50: 1.38 µM
  TGI: 2.83 µM

— PubChem BioAssay (NCI)
